Key:
[1] = system: cervical carcinoma (HeLa) cell line; assay: MTT cell viability (cytotoxicity) assay in HeLa cells; assay type: cell-based, human
Text: The cytotoxicity of the arene-Ru and arene-Os complexes was investigated against HeLa and Hek293 cells. The former cell is a cervical cancer line, while the latter is a non-tumor kidney cell line used to examine tumor selectivity. […] Due to their relative inertness and sufficient stability under physiological conditions, osmium complexes are considered exciting alternatives to ruthenium-based anti-cancer agents.
Phosphate-buffered saline tablets (PBS), 3-(4,5-dimethylthiazol-2-yl)-2.5-diphenyltetrazolium bromide (MTT), and DMSO were obtained from Merck (Darmstadt, Germany). The human embryonic kidney (HEK293) and cervical carcinoma (HeLa) cell lines were sourced from the American Type Culture Collection (ATCC) (Manassas, VA, USA). […]
(§1) The cytotoxicity of the compounds was examined in the HeLa and HEK293 cells using the MTT assay. […] Absorbance measurements were then taken at 570 nm using a Mindray MR-96A microplate reader (Vacutec, Hamburg, Germany).

[2] = system: human embryonic kidney (HEK293) cell line; assay: MTT cell viability (cytotoxicity) assay in HEK293 cells; assay type: cell-based; details: 48 h incubation, non-tumor HEK293 cells, concentration needed to cause 50% net cell mortality
Text: The cytotoxicity of the arene-Ru and arene-Os complexes was investigated against HeLa and Hek293 cells. The former cell is a cervical cancer line, while the latter is a non-tumor kidney cell line used to examine tumor selectivity. […] These findings imply that the higher stability of the chelating (SS) and the pincer (SNS) ligand architectures in the complexes improve the biological (anti-proliferative) activity by rendering ligand dissociation less likely to occur under physiological conditions. The pincer (SNS) osmium complexes were more cytotoxic than their ruthenium analogues. […] These allow for more efficient interactions with biological target molecules. Osmium typically forms coordinative bonds with more inert bonds than in the analogous lighter homolog, ruthenium. Due to their relative inertness and sufficient stability under physiological conditions, osmium complexes are considered exciting alternatives to ruthenium-based anti-cancer agents. However, there was no apparent general pattern in the reactivity of the two metal centers and the isostructural ligand. […]
as §1

Row | melting point [°C] | Structure (SMILES) | also measured
1 | 195 to 197 | Cn1ccn(CCn2ccn(C)c2=S)c1=S | –
2 | 131 to 133 | CCn1ccn(CCn2ccn(CC)c2=S)c1=S | –
3 | 91 to 92 | CCCn1ccn(CCn2ccn(CCC)c2=S)c1=S | –
4 | 194 to 197 | Cn1ccn(Cn2ccn(C)c2=S)c1=S | –
5 | 175 to 177 | CCn1ccn(Cn2ccn(CC)c2=S)c1=S | –
6 | 190 to 193 | Cn1ccn(Cc2cccc(Cn3ccn(C)c3=S)n2)c1=S | –
7 | 270 to 273 | Cn1ccn(-c2cccc(-n3ccn(C)c3=S)n2)c1=S | –
8 | 189 to 190 | CC(C)n1ccn(-c2cccc(-n3ccn(C(C)C)c3=S)n2)c1=S | –
9 | – | O=c1[nH]cc(F)c(=O)[nH]1 [5-Fluorouracil, reference compound] | Selectivity between tumor cells (HeLa) and normal cells (Hek293) ([1]; HeLa vs Hek293, MTT assay): selective toward the tumor cells; IC50 ([1]; Homo sapiens, MTT, 48 h incubation, HeLa cervical cancer cells, concentration needed to cause 50% net cell mortality): 87 ± 15 µM; IC50 [2]: 180 ± 20 µM
